Test results from patent US7678799B2 (Teva Pharmaceutical Industries Ltd., priority 2003, dated 2010).
Counter-ions that a name gives are not always drawn. One block for each compound: values may come before it.

What was measured:
[1] = Storage stability at 25, 40 and 55° C., crystal form by XRD; format: physicochemical
Description: (§1) Ziprasidone HCl Form M, however, converts to the anhydrous form under heating (see table 1 and FIG. 8) or exposure to 0% relative humidity (see table 6 and FIG. 10).
(§2) This crystalline form may be sesquihydrate.
(§3) X-Ray powder diffraction data were obtained using by method known in the art using a SCINTAG powder X-Ray diffractometer model X'TRA equipped with a solid state detector. Copper radiation of 1.5418 Å was used. A round aluminum sample holder with round zero background quartz plate, with cavity of 25(diameter)*0.5(dept) mm. Detection limit: 5%.

[2] = Storage at 0% relative humidity, crystal form by XRD; format: physicochemical; conditions: for transformed into Form M upon exposure to 0% relative humidity: 0% humidity, prolonged periods (such as 3 weeks)
Description: (§4) In addition, no more than 5% of Form A transforms into Form M during heating and also during exposure to 0% relative humidity.
as §1, §2, §3

[3] = Specific surface area measurement (BET, Coulter SA3100); format: physicochemical; conditions: for Specific surface area: BET
Description: Preferably, the SSA is about 5 to about 20 m^2/g.
Specific surface area measurement: • Instrument: Coulter SA3100 • Degassing: without • Sensitivity: high • Calculation: BET • Type: multipoint • Points: 10 • Sample cell: 9 and 12cm^3

[4] = Heating of crystalline ziprasidone HCl forms, crystal form by XRD; format: physicochemical; conditions: for Crystal form after heating at 80-105° C. overnight: HCl
Description: as §4, §3

[5] = Slurry of Form A in water or ethanol, transformation to Form M; format: physicochemical
[6] = Equilibration of ziprasidone HCl form E at different relative humidities for 22 days (TGA, XRD); format: physicochemical; conditions: for TGA weight loss (water uptake) / Crystal form: 22 days
Protocol: The slurry temperature is preferably at least about 40° C. when using THF.
as §3
TGA analysis was done using a Mettler M3 meter. The weight of the samples was about 10 mg; the samples were scanned at a rate of 10° C./min from 25° C. to 200° C. The oven was constantly purged with nitrogen gas at a flow rate of 40 ml/min. Standard 70 μl alumina crucibles covered by lids with 1 hole were used.

[7] = cited from earlier work

transforms into Form M upon storage ([1]; 25, 40 and 55° C. for at least 3 months): No more than 5%
transformed into Form M upon exposure to 0% relative humidity ([2]; listed as solid crystalline ziprasidone HCl having a water content of about 4.6% to about ): No more than 5%
Compound: O=C1Cc2cc(CCN3CCN(c4nsc5ccccc45)CC3)c(Cl)cc2N1 [Crystalline ziprasidone HCl having a water content of 4.6-6.]

Specific surface area ([3]; cell volume = 9 cm^3, HCl): 3.908 m^2/g
Specific surface area ([3]; cell volume = 9 cm^3, listed as Repetition of U.S. Pat. No. 6,150,366 procedure (comparative example 15), HCl): 3.908 m^2/g
Compound: O=C1Cc2cc(CCN3CCN(c4nsc5ccccc45)CC3)c(Cl)cc2N1 [Example 15, ziprasidone HCl, reference compound]

Specific surface area ([3]; cell volume = 9 cm^3, HCl): 5.461 m^2/g
Specific surface area ([3]; cell volume = 9 cm^3, listed as Sample prepared according to example 16, HCl): 5.461 m^2/g
Compound: O=C1Cc2cc(CCN3CCN(c4nsc5ccccc45)CC3)c(Cl)cc2N1 [Example 16, ziprasidone HCl]

Specific surface area ([3]; cell volume = 12 cm^3, HCl): 14.646 m^2/g
Specific surface area ([3]; cell volume = 12 cm^3, listed as Sample prepared according to example 17, HCl): 14.646 m^2/g
Compound: O=C1Cc2cc(CCN3CCN(c4nsc5ccccc45)CC3)c(Cl)cc2N1 [Example 17, ziprasidone HCl]

Specific surface area ([3]; cell volume = 12 cm^3, HCl): 18.831 m^2/g
Specific surface area ([3]; cell volume = 12 cm^3, listed as Sample prepared according to example 18, HCl): 18.831 m^2/g
Compound: O=C1Cc2cc(CCN3CCN(c4nsc5ccccc45)CC3)c(Cl)cc2N1 [Example 18, ziprasidone HCl]

Specific surface area ([3]; cell volume = 9 cm^3, HCl): 11.335 m^2/g
Specific surface area ([3]; cell volume = 9 cm^3, listed as Sample prepared according to example 19, HCl): 11.335 m^2/g
Compound: O=C1Cc2cc(CCN3CCN(c4nsc5ccccc45)CC3)c(Cl)cc2N1 [Example 19, ziprasidone HCl]

transformed into Form M upon storage under accelerated aging conditions ([1]; 40° C., 75% RH, at least about 6 months): no more than 5%
temperature of heating without a change in the crystal structure [4]: up to 140 °C
Crystal form after heating at 80-105° C. overnight [4]: Form A
Form A transformed into Form M during heating ([4]; heating): no more than 5%
transforms to Form M ([5]; ethanol slurry): 95%
Form A transformed into Form M ([5]; slurried in water): no more than 5%
specific surface area (SSA) ([3]; as measured by BET, general statement): higher than 4 m^2/g
transformed into Form M upon exposure to 0% relative humidity ([2]; HCl): no more than 5%
Crystal form upon storage at 0% relative humidity ([2]; HCl): Form A
Compound: O=C1Cc2cc(CCN3CCN(c4nsc5ccccc45)CC3)c(Cl)cc2N1 [Form A, ziprasidone HCl]

TGA weight loss (water uptake) ([6]; RH 0%): 5.3%
TGA weight loss (water uptake) ([6]; RH 20%): 7.2%
TGA weight loss (water uptake) ([6]; RH 40%): 4.8%
TGA weight loss (water uptake) ([6]; RH 60%): 5.0%
Crystal form ([6]; RH 80%): M + A
TGA weight loss (water uptake) ([6]; RH 80%): 9.2%
Crystal form ([6]; RH 100%): M + A + amorphous
crystal form after exposure to relative humidity ([6]; relative humidity of about 20% to about 60% for about 22 days): Form A
Compound: O=C1Cc2cc(CCN3CCN(c4nsc5ccccc45)CC3)c(Cl)cc2N1 [Form E, ziprasidone HCl]

Crystal form after heating at 80-105° C. overnight [4]: Anhydrous
Crystal form upon storage at 0% relative humidity ([2]; HCl): Anhydrous
Compound: O=C1Cc2cc(CCN3CCN(c4nsc5ccccc45)CC3)c(Cl)cc2N1 [Form M, ziprasidone HCl, reference compound]

Specific surface area ([3]; cell volume = 9 cm^3, HCl): 3.909 m^2/g
Compound: O=C1Cc2cc(CCN3CCN(c4nsc5ccccc45)CC3)c(Cl)cc2N1 [Repetition of U.S. Pat. No. 5,312,925 Example 2] [ziprasidone HCl, reference compound]

Specific surface area ([3]; cell volume = 9 cm^3, HCl): 2.135 m^2/g
Compound: O=C1Cc2cc(CCN3CCN(c4nsc5ccccc45)CC3)c(Cl)cc2N1 [Repetition of U.S. Pat. No. 6,150,366 Example 10] [ziprasidone HCl, reference compound]

Compound: O=C1Cc2cc(CCN3CCN(c4nsc5ccccc45)CC3)c(Cl)cc2N1 [Ziprasidone HCl]
solubility in water [7]: 80 µg/mL
